Data from BindingDB's records for doi:10.1021/jm00156a023 (1986).

Tests used:
[1] = molecular target: sucrase-isomaltase (Sus scrofa); assay: Alpha-D-glucosidase inhibitory activity and enzyme inhibition in vitro against porcine sucrase
[2] = molecular target: maltase-glucoamylase (Sus scrofa); assay: Inhibitory activity against porcine maltase

| SMILES | IC50 [1] [nM] | IC50 [2] [nM] |
| --- | --- | --- |
| OC[C@@]1(O)C[C@H](NC[C@@H](O)c2ccccc2)[C@H](O)[C@H](O)[C@H]1O [1-Hydroxymethyl-5-(2-hydroxy-2-phenyl-ethylamino)-cyclohexane-1,2,3,4-tetraol] | 190 | – |
| OC[C@@]1(O)C[C@H](NCC2CCCCC2)[C@H](O)[C@@H](O)[C@@H]1O [5-(Cyclohexylmethyl-amino)-1-hydroxymethyl-cyclohexane-1,2,3,4-tetraol] | 9.3 | 240 |
| CC(C)(C)c1cc(CN[C@H]2C[C@](O)(CO)[C@@H](O)[C@H](O)[C@H]2O)cc(C(C)(C)C)c1O [5-(3,5-Di-tert-butyl-4-hydroxy-benzylamino)-1-hydroxymethyl-cyclohexane-1,2,3,4-tetraol] | 6.8 | 43 |
| OCC1=C[C@H](NC(CO)CO)[C@H](O)[C@@H](O)[C@@H]1O [6-(2-Hydroxy-1-hydroxymethyl-ethylamino)-4-hydroxymethyl-cyclohex-4-ene-1,2,3-triol] | 180 | 5900 |
| OC[C@@]1(O)C[C@H](NCc2ccc(Br)cc2)[C@H](O)[C@@H](O)[C@@H]1O [5-(4-Bromo-benzylamino)-1-hydroxymethyl-cyclohexane-1,2,3,4-tetraol] | 15 | 230 |
| OC[C@@]1(O)C[C@H](NC2CCCCC2)[C@H](O)[C@@H](O)[C@@H]1O [5-Cyclohexylamino-1-hydroxymethyl-cyclohexane-1,2,3,4-tetraol] | 15 | 410 |
| OC[C@@]1(O)C[C@H](NC[C@H](O)c2ccccc2)[C@H](O)[C@H](O)[C@H]1O [1-Hydroxymethyl-5-(2-hydroxy-2-phenyl-ethylamino)-cyclohexane-1,2,3,4-tetraol] | – | 5.8 |
| CC(C)=CCC/C(C)=C/CN[C@H]1C[C@](O)(CO)[C@@H](O)[C@H](O)[C@H]1O [5-(3,7-Dimethyl-octa-2,6-dienylamino)-1-hydroxymethyl-cyclohexane-1,2,3,4-tetraol] | 11 | 520 |
| N[C@H]1C[C@](O)(CO)[C@@H](O)[C@H](O)[C@H]1O [Valiolamine] | 49 | 2200 |
| CO[C@H]1O[C@H](CO)[C@@H](N[C@H]2C[C@](O)(CO)[C@@H](O)[C@H](O)[C@H]2O)[C@H](O)[C@H]1O | 80 | 72 |
| OC[C@@]1(O)C[C@H](NCCc2ccccc2)[C@H](O)[C@@H](O)[C@@H]1O [1-Hydroxymethyl-5-phenethylamino-cyclohexane-1,2,3,4-tetraol] | 2.3 | 100 |
| CO[C@H]1O[C@H](CO)[C@H](N[C@H]2C[C@](O)(CO)[C@@H](O)[C@H](O)[C@H]2O)[C@H](O)[C@H]1O | 230 | 100 |
